Measured values reported in ChEMBL document CHEMBL1140028, “Heterocyclic alpha-helix mimetics for targeting protein-protein interactions” (Bioorg Med Chem Lett, 2007).
The source made the active and inactive calls. The calls are words filed in the database; no cut-off is given here.

Test system: Bcl-XL (Homo sapiens)
Test: Binding affinity to Bcl-XL by fluorescence polarization assay

Compound | Activity
CC(C)Cc1cc(C(=O)N2CCC[C@@H](OCc3ccccc3)C2)nnc1-c1nc(C(C)C)co1 | Active
CC(C)Cc1cc(-c2nc(C(C)C)co2)nnc1-c1nc(C(C)C)co1 | Active
CCC(C)C1CN(C(=O)c2cc(Cc3ccccc3)c(-c3nc(CC(C)C)co3)nn2)CCN1C (centres undefined) | Active
CC(C)c1coc(-c2cc(CC3CCCCC3)c(-c3nc(C(C)C)co3)nn2)n1 | Active
